ChEMBL document CHEMBL3091331, “Aminothiazole-featured pirinixic acid derivatives as dual 5-lipoxygenase and microsomal prostaglandin E2 synthase-1 inhibitors with improved potency and efficiency in vivo” (J Med Chem, 2013)
The source made the active and inactive calls. The rule behind the calls is not given here.

How the values were obtained:
[1] = Metabolic stability in Sprague-Dawley rat liver microsomes assessed as compound remaining at 10 uM after 60 mins by HPLC analysis; type: ADME; settings: read-out: Stability
Mus musculus [2] = experiment: Antiinflammatory activity in CD-1 mouse peritonitis model assessed as reduction in neutrophil infiltration at 10 mg/kg, ip administered 30 mins prior to zymosan-challenge measured after 4 hrs by spectrophotometry relative to vehicle-treated control; type: functional; settings: CD-1, ip, route intraperitoneal
Mus musculus [3] = experiment: Antiinflammatory activity in CD-1 mouse peritonitis model assessed as reduction in myeloperoxidase activity at 10 mg/kg, ip administered 30 mins prior to zymosan-challenge measured after 4 hrs by spectrophotometry relative to vehicle-treated control; type: functional; settings: CD-1, ip, route intraperitoneal
Mus musculus [4] = experiment: Reduction of LTC4 formation in CD-1 mouse peritonitis model at 10 mg/kg, ip administered 30 mins prior to zymosan-challenge measured after 30 mins by EIA relative to vehicle-treated control; type: functional; settings: CD-1, ip, route intraperitoneal
Homo sapiens [5] = organism: Homo sapiens; experiment: Translocation of 5-lipoxygenase from cytosol into nuclear membrane in A23187-stimulated human polymorphonuclear leukocytes assessed as enzyme product formation at 10 uM incubated for 15 mins prior to A23187-challenge measured after 5 mins by Western blotting analysis; type: functional
[6] = (§1) Inhibition of reactive oxygen species generation in fMLP-stimulated human polymorphonuclear leukocytes incubated for 15 mins prior to fMLP-challenge by fluorescence assay; type: functional
Homo sapiens [7] = organism: Homo sapiens; experiment: as §1; type: functional
[8] = Cytotoxicity against human polymorphonuclear leukocytes at 10 uM after 1 hr by trypan blue staining
[9] = (§2) Inhibition of reactive oxygen species generation in PMA-stimulated human polymorphonuclear leukocytes incubated for 15 mins prior to PMA-challenge by fluorescence assay; type: functional
Homo sapiens [10] = organism: Homo sapiens; experiment: as §2; type: functional
[11] = molecular target: T1, Prostaglandin G/H synthase 2 (Homo sapiens) (UniProt P35354); settings: at 10 µM
T1 sequence (whole entry): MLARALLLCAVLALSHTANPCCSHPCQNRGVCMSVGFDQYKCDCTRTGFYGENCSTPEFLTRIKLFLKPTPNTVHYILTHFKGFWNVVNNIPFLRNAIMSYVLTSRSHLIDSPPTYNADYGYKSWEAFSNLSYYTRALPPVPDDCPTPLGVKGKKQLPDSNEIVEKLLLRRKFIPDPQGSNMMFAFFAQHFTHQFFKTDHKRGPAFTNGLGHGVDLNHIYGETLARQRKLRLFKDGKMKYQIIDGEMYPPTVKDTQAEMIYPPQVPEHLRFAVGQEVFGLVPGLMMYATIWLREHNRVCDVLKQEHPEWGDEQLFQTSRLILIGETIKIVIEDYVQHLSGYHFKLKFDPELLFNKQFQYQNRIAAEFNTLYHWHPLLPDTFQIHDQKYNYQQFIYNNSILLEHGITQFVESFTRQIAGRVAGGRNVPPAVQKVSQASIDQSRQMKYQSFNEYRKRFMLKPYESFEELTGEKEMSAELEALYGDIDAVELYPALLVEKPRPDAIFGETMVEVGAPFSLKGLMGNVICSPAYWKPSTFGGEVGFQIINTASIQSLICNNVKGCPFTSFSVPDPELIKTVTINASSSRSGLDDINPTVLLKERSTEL
Description: Inhibition of human recombinant COX2 using arachidonic acid as substrate at 10 uM incubated 5 mins prior to substrate addition measured after 5 mins by HPLC analysis

[12] = molecular target: T2, Polyunsaturated fatty acid 5-lipoxygenase (Homo sapiens, UniProt P09917); experiment: Inhibition of 5-lipoxygenase in A23187-stimulated human polymorphonuclear leukocytes using arachidonic acid as substrate incubated 15 mins prior to substrate addition measured after 10 mins by HPLC analysis
T2 sequence (P09917 whole entry): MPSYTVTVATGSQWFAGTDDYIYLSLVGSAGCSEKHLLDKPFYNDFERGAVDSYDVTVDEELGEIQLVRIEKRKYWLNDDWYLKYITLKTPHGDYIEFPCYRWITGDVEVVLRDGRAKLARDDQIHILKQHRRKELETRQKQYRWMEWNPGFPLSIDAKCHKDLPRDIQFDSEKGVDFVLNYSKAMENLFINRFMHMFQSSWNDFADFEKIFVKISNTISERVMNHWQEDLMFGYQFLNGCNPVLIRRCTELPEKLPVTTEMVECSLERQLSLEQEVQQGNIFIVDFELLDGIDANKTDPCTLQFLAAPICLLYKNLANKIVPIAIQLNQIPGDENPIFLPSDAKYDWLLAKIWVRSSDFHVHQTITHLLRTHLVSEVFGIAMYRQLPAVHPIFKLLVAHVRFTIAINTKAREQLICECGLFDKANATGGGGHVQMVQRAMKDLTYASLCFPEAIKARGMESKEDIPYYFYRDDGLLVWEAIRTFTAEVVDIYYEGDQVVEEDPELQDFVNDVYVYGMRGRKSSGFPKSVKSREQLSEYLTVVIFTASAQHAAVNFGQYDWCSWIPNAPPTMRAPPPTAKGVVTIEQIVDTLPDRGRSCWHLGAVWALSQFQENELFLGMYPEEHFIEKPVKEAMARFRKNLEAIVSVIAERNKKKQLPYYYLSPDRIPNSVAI

[13] = molecular target: T2, Polyunsaturated fatty acid 5-lipoxygenase; experiment: Inhibition of human recombinant 5-lipoxygenase expressed in Escherichia coli BL21 using arachidonic acid as substrate incubated 5 to 10 mins prior to substrate addition measured after 10 mins by HPLC analysis
[14] = molecular target: T3, Prostaglandin G/H synthase 1 (Ovis aries) (UniProt P05979); experiment: Inhibition of ovine COX1 using arachidonic acid as substrate at 10 uM incubated 5 mins prior to substrate addition measured after 5 mins by HPLC analysis
T3 sequence (whole entry): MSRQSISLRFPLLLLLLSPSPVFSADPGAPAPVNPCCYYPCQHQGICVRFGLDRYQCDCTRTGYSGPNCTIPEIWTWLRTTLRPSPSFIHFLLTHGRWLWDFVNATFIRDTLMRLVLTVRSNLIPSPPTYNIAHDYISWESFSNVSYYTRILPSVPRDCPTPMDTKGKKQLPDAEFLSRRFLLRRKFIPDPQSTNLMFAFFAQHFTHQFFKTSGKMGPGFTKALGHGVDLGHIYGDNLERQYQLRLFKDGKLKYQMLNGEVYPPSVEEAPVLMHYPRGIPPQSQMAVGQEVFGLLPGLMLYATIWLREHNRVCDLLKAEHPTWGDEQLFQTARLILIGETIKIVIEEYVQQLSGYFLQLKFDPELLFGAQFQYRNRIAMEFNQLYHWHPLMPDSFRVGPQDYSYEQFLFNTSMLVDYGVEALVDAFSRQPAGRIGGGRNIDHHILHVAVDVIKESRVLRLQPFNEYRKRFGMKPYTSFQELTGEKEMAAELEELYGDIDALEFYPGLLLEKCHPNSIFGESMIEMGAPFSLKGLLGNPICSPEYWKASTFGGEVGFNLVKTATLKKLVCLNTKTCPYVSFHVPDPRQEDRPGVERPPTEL

- remaining at 1 h, 10 µM [1]: 77%
- IC50 [6]: 3 µM
- IC50 [9]: 8 µM
- inhibition [11]: 18%
- IC50 [12]: 0.2 µM
- IC50 [13]: 0.3 µM
- inhibition [14]: 39%
Compound: CCCCCCC(Sc1nc(Cl)cc(Nc2nc(-c3ccc4ccccc4c3)cs2)n1)C(=O)O (racemic)
- inhibition in vivo at 10 mg/kg (Mus musculus [2]): 45%
- inhibition in vivo at 10 mg/kg (Mus musculus [3]): 23%
- inhibition in vivo at 10 mg/kg (Mus musculus [4]): 84%
- Activity (Homo sapiens [5]): inactive
- inhibition (Homo sapiens [7]): Dose-dependent effect
- Activity [8]: Non-toxic
- inhibition (Homo sapiens [10]): Dose-dependent effect
